A short description of data set [1]: solubility in organic solvents. The conditions noted are these: organic solvent or mixture. In kind it is physicochemical.
A further data set can be described thus: solubility in water. The data set is classed as physicochemical. The conditions noted are these: for solubility in water: result in words.
In data set [2] the test system is diabetes induced by streptozotocin. In words: Experimental diabetes induced by streptozotocin. The data set is classed as in vivo, male Wistar rats. The conditions noted are these: for AcAc: Aceto Acetate. The procedure:
The derivatives are then tested in order to define their biologic activity in experimental conditions of hyperglycemia induced both by food absence and by diabetes induced by streptozotocin. Hepatic glucokinase activity is examined in the experimental condition of food absence. Glycemia, insulinemia and the levels of Aceto Acetate (Ac.Ac.) are examined in the diabetes induced by streptozotocin.
10 male Wistar rats (200 g) are divided into 4 groups, the first group is composed by the controls, to the remaining groups streptozotocin is injected by intraperitoneal route (80 mg/kg). The third group is furthermore treated with biotin (3 mg/kg) by intraperitoneal route, and the fourth group with biotinyl ethanolamide (3 mg/kg) again by intraperitoneal route. The treatment is repeated for three days, then a blood sample is taken for analysis on the fifth day from the initial treatment.

For data set [3], the system named is hepatic glucokinase. In words: Ex vivo hepatic glucokinasic activity, Experiment A. In kind it is in vivo, Wistar rats. The conditions noted are these: for Glucokinasic activity: 3 mg/kg i.p. after 24 hours without food, sacrifice after 6 hours, mean ± stan. deviation. The protocol:
This experiment is carried out following to Chauhan et al. process (J. Biol. Chem. 266, 10035, 1991), according to this process, hepatic glucokinase in the rat, which activity is depressed by food absence is reactivated by the biotin action. 15 Wistar rats weighing on average 250 g are divided into three groups, the first one represent the controls, the second one is treated by intraperitoneal route with biotin (3 mg/kg) and the third group with biotinylethanolamine (3 mg/kg) again by intraperitoneal route. Rats are treated after 24 hours without food and after 6 hours are sacrificed by decapitation. Livers are homogenized in 5 volumes 50 mM Tris at pH 7, 0.15 M KCl, 5 mM EGTA, 4 mM MgCl₂, and 2 mM dithiothreitol and centrifugated at 100.000 x g for 60 minutes. The surnatant, frozen to -80 °C, is used for the analyses, after identifying proteins according to Bradford method (Anal. Biochem. 72, 248, 1976). Glucokinase is dosed by spectrophotometry according to Dakshinamurti et al. (Can. J. Biochem. 46, 75, 1968) with the following results: […]

Data set [4] deals with hepatic glucokinase. Description: Ex vivo hepatic glucokinasic activity, Experiment B. In kind it is in vivo, Sprague Dawley rat. The conditions noted are these: 2 mg/kg i.p., rats without food for 24 hours, 3 hours after the treatment. The procedure:
Also this experiment, like the previous one, is carried out by following Chauhan et al. process (J. Biol. Chem. 266, 10035, 1991), according to this process, hepatic glucokinase in the rat, which activity is depressed by food absence and it is reactivated by the biotin action.
Sprague Dawley rat weighing on average 260 g left without food for 24 hours, are divided into 15 groups, each of 13 groups are respectively intraperitoneally treated with 2 mg/kg of one of the compounds of the present invention hereinbelow reported in Table 1 or with the same dosage of biotin, all these substances being previously dissolved in physiological solutions. The obtained results are compared with those of the two groups corresponding to normal rats feeded ad libitum and with untreated rats left without food for 24 hours, all the animals had free admission to water.
3 hours after the treatment the rats are sacrificed by cerebral displacement. […] The homogenates are centrifugated at 100.000 x g for 60 minutes.Their proteic concentration is determined according to the above mentioned Bradford method (Anal. Biochem. 72, 248, 1976).
Glucokinase activity is evaluated according to Dakshinamurti et al. (Can. J. Biochem. 46, 75, 1968), and expressed as arbitrary units /proteic concentration of the samples.

The conditions of data set [5]: background statement, in words; cited from earlier work.
Another data set has as its system diabetic patients. The conditions noted are these: 16mg/die for 1 week, insulin treatment interrupted; cited from earlier work.
Data set [6] deals with genetically diabetic mice KK. The conditions noted are these: 2mg/kg for 14 days; cited from earlier work.
The next data set relates to neuropathy. The conditions noted are these: intramuscular for 6 weeks, with oral daily dose of 5 mg for about 2 years; cited from earlier work.
Setting [7] is: aqueous buffer, in 0.1M phosphate buffer at pH 7.4.
[8] abbreviates: streptozotocin 80 mg/kg i.p., test substance 3 mg/kg i.p. for three days, blood sample on the fifth day.
Setting [9] is: result in words, 3 mg/kg i.p., streptozotocin rats.

The solubility is how much of the substance goes into solution per volume.

Like-named read-outs stand apart in the source and are kept apart here. Where only a bound is given, the exact number is not on record here.

As for `O=C(CCCC[C@@H]1SC[C@@H]2NC(=O)N[C@@H]21)NCCNC(=O)CCCC[C@@H]1SC[C@@H]2NC(=O)N[C@@H]21` [Example 6, N,N'bis-(β-biotinyl)-ethylendiamine], the solubility in data set [1] (in hot DMSO) is greater than 2000 µg/mL. The solubility in water entry in the data set “solubility in water” (water) was “poorly soluble”.
For `O=C(CCCC[C@@H]1SC[C@@H]2NC(=O)N[C@@H]21)N[C@@H](CO)C(=O)O` [Example 7, N-β-biotinyl-L-serine], the solubility (in data set [1] (in DMSO); in the data set “solubility in water” (setting [7])) was greater than 10000 µg/mL throughout.
For `O=C(CCCC[C@@H]1SC[C@@H]2NC(=O)N[C@@H]21)NCc1ccc([N+](=O)[O-])cc1` [Example 10, N-β-biotinyl-4-nitrobenzylamine], in [1] (in DMSO), the solubility was greater than 10000 µg/mL. Also, the solubility in water result in “solubility in water” (water) is recorded as “poorly soluble”.
Regarding `CN=C(N)NCCC[C@H](NC(=O)CCCC[C@@H]1SC[C@@H]2NC(=O)N[C@@H]21)C(=O)O` [Example 2, N-β-biotinyl-N^G-methyl-L-arginine], the solubility (in [1] (in DMSO); in the data set “solubility in water” (water)) was greater than 10000 µg/mL in each case.
As for `O=C(CCCC[C@@H]1SC[C@@H]2NC(=O)N[C@@H]21)NCc1ccccc1` [Example 4, N-β-biotinyl-benzylamine], the solubility in data set [1] (in DMSO) and in data set [1] (in ethanol) was greater than 10000 µg/mL in each case. For the same compound, the solubility in water entry in the data set “solubility in water” (water) is “poorly soluble”.
Turning to `O=C(CCCC[C@@H]1SC[C@@H]2NC(=O)N[C@@H]21)N[C@@H](CS)C(=O)O` [Example 12, N-β-biotinyl-L-cysteine], the solubility (in data set [1] (in DMSO); in “solubility in water” (setting [7])) was greater than 10000 µg/mL throughout.
`O=C(CCCC[C@@H]1SC[C@@H]2NC(=O)N[C@@H]21)NCCCCO` [Example 5, N-β-biotinyl-4-amino-butanol]: the results for the solubility (in data set [1] (in DMSO); in the data set “solubility in water” (water)) were greater than 10000 µg/mL and greater than 5000 µg/mL, respectively.
Take `CCCCNC(=O)CCCC[C@@H]1SC[C@@H]2NC(=O)N[C@@H]21` [Example 8, N-β-biotinyl-1-aminobutane]: the solubility in data set [1] (in DMSO) is greater than 10000 µg/mL. Further, the solubility in water entry in “solubility in water” (water) was “poorly soluble”.
As to `O=C1N[C@H]2[C@H](CS[C@H]2CCCCC(=O)N2CCN(CCO)CC2)N1` [Example 3, N¹-β-biotinyl-N⁴-(2-hydroxyethyl) piperazine hydrochlorate], the solubility (in data set [1] (in DMSO); in the data set “solubility in water” (water)) was greater than 10000 µg/mL throughout.
Take `O=C(CCCC[C@@H]1SC[C@@H]2NC(=O)N[C@@H]21)NC1CCCCC1` [Example 9, N-β-biotinyl-aminocyclohexane]: in data set [1] (in DMSO), the solubility is greater than 10000 µg/mL. In addition, in “solubility in water” (water), the solubility in water result is reported as “poorly soluble”.
As to `N=C(N)NCCC[C@H](NC(=O)CCCC[C@@H]1SC[C@@H]2NC(=O)N[C@@H]21)C(=O)O` [Example 11, N-β-biotinyl-L-arginine], the solubility (in [1] (in DMSO); in “solubility in water” (water)) was greater than 10000 µg/mL each time.
On to `O=C(CCCC[C@@H]1SC[C@@H]2NC(=O)N[C@@H]21)NCCO` [Example 1, N-β-biotinyl-ethanolamine], for which the solubility in [1] (in DMSO) was greater than 10000 µg/mL. In “solubility in water” (water), this compound came in with a solubility greater than 10000 µg/mL. In data set [2] (setting [8]), this compound yielded an AcAc of 0 nmol/L, a Glycemia of 6.0 ± 0.5 mmol/L and an insulinemia of 23.5 ± 1.8 mU/l. For the same compound, in [2] (setting [9]), the Glycemia result is recorded as “normalized” and the insulinemia entry is on record as “active”. The Glucokinasic activity in the data set with hepatic glucokinase [3] stood at 4.27 ± 0.45 U./min/protein mg. Besides, the “Glucokinasic activity compared with biotin” value with hepatic glucokinase [3] (result in words, after 6 hours, 3 mg/kg i.p.) was “more active than biotin”.
On to `O=C(O)CCCC[C@@H]1SC[C@@H]2NC(=O)N[C@@H]21` [Biotin, biotin], for which, in data set [2] (setting [8]), the AcAc stood at 0 nmol/L, the Glycemia was found to be 7.4 ± 0.9 mmol/L and the insulinemia is 25.1 ± 1.5 mU/l. Besides, in data set [2] (setting [9]), the Glycemia result was “normalized” and the insulinemia entry is recorded as “active”. In the data set with hepatic glucokinase [3], this compound returned a Glucokinasic activity of 3.96 ± 0.70 U./min/protein mg. Further, the glucokinase activity in the data set on hepatic glucokinase [4] is on record as 3.662± 0.280 UA/mg proteins. The solubility in water result in [5] is reported as “poorly soluble in water”. Also, the hematic glucose rate entry with diabetic patients is on record as “significant reduction”. In data set [6], the glucose tolerance entry is listed as “improved sensibly”. In the data set with neuropathy, the “conduction velocity at the level of the motor nerves and of the action sensory potentials” value is recorded as “slight improvement”; the subjective neurologic symptoms result is recorded as “marked improvement”.

The values above are taken from EP0590563A1, “Biotin amides, a process for their preparation and therapeutical compositions containing them as the active principles for the treatment of diabetes and relative complicating diseases” (LIFEGROUP S.p.A., priority 1992, dated 1994).
